The test system of data set [1] is xenografts of MDA-MB-468 cells. The data set can be described thus: MDA-MB-468 xenograft in nude mice, intratumoral injection. The format is in vivo. The procedure:
After 15 days mice were separated into three groups. Group 1 received PBS, group 2 received 20% hydroxypropyl-β-cyclodextrin (Trappsol) in PBS and group 3 received 10 mM of the compound in 20% Trappsol/PBS. Injections of 50 μL were made directly into the tumors. PBS is a phosphate buffered saline having pH7. Mice were treated daily for 5 days, given two days of rest and were treated for 5 days. On day 16 mice were treated and two hours later tumors were harvested, divided into two parts. The first part was frozen and the other was fixed in formalin for immunohistochemistry. Average tumor volume increased 2.3 and 2.5-fold in PBS and Trappsol/PBS vehicle controls, respectively.
Efficacy of Compound of Example 1 in animal models. […] Nu/nu Nude mice were injected in the mammary fat pad with 2×10^6 MDA-MB-468 cells suspended in matrigel. After 15 days mice were separated into three groups. Group 1 received PBS, group 2 received 20% hydroxypropyl-β-cyclodextrin (Trappsol) in PBS and group 3 received 10 mM of the compound of Example 1 in 20% Trappsol/PBS. PBS is a phosphate buffered saline with pH7. Injections of 50 μL were made directly into the tumors. Mice were treated daily for 5 days, given two days of rest and were treated for 5 days. On day 16 mice were treated and two hours later tumors were harvested, divided into two parts. The first part was frozen and the other was fixed in formalin for immunohistochemistry.

In a further data set the test system is IL-6. The data set can be described thus: Inhibition of IL-6 expression in lung tumor cells (ELISA). The data set is classed as cell-based, human. Particulars: 5 μM; HCC-827. The procedure: Inhibition of IL-6 expression in lung tumor cells. HCC-827 cells were seeded in 6-well plates at a density of 4×10^5 cells/well. The following day, the media was replaced with fresh media containing low serum and treated the compound from Example 1 at a concentration of 5 μM. The cells were incubated at 37° C. and the supernatant was collected at 2, 4, 24, 48, and 72 hours post treatment. The supernatant was centrifuged at 2000 rpm for 3 minutes, transferred to fresh tubes and stored at −20 for further analysis. The supernatants were diluted six times with distilled water. The supernatants were then subjected to ELISA analysis for expression of Interleukin-6 (IL-6) as per the manufacturer's protocol (Hs Human IL-6 kit, R&D Systems, Minneapolis, Minn. USA, Cat #HS600B). The amount of secreted IL-6 was calculated and quantified based on the standards and plotted as bar graphs using Microsoft excel. […] Stat3 expresses IL-6 and IL-6 stimulates Stat3 activation, resulting in angiogenesis, cell cycling and cell survival.

Data set [2] relates to SUM149 inflammatory breast tumor cells. As to the kind of experiment: Anchorage-independent growth in soft agar, SUM149. The format is cell-based. Particulars: 28 days. The procedure: Assay for anchorage-independent growth in soft agar Cells (5×10^5) were suspended in 1× DMEM/HEPES, 10% heat-inactivated FBS, 0.13% bicarbonate, and 0.33% BBL agar. The cells were plated on 1% base agar plates (60 mm) containing 1× DMEM/HEPES, 10% heat-inactivated FBS, and 1% BBL agar. Fresh serum-containing medium was fed to the cells on 3-day intervals. The dishes were then incubated at 37° C. with 5% CO2 for 28 days. The colonies that grew in soft agar were photographed and counted. Data are expressed as the number of colonies formed per plate±S.E.M. and three plates were counted per cell line.

The test system of data set [3] is MDA-MB-468 breast cancer cells. As to the kind of experiment: Inhibition of growth of MDA-MB-468 breast cancer cells (MTT). The format is cell-based, human. Particulars: 72 hr. The procedure:
MDA MB 468 cells were plated at 1500 cells/well DMEM with high glucose 10% FBS. Cells were plated into 96 well plates (1500 cells per well) in. After 24 h the media was changed and cells were treated with DMSO or increasing amounts of the compound of Example 1 in DMSO. All wells had equal concentrations of DMSO. At 72 hr viability was measured with the MTT assay. […] In the mixtures of compounds of Examples 16, 22, 1 and 8. the total concentration of the drug is as listed on the X-axis. However, the mixtures are equimolar amounts of both drugs. For example, 5 μM of the drug is actually 2.5 μM of the compound of Example 16 and 2.5 μM the compound of Example 22. The same is true for the mixture of compounds Example 1 and Example 8.

The subject of the next data set is normal cells. As to the kind of experiment: Effect on normal cells in the cell growth assay. The data set is classed as cell-based. The procedure:
Lung Tumor Cell Viability Assay: H1819, H1299 and H827 lung tumor cells were seeded in 6-well plates at a density of 6×10^4, 4×10^4 and 5×10^4 cells/well, respectively. Prodrugs were dissolved in DMSO to make a stock concentration of 500 μM. The following day the cells were treated either with DMSO alone or with 0.25 μM, 0.5 μM, 1.0 μM, 2.5 μM and 5.0 μM of the compounds from Example 1, Example 16, and Example 22. Seventy two h after treatment with the drug the cells were subjected to cell viability assay using trypan blue. […] Cells were plated and after 24 hr were treated with the compound of Example 16 in DMSO. After 72 hr, cells were counted. Note that vertical axes are different for each plot.

A further data set relates to HUVEC cells. As to the kind of experiment: Inhibition of tube formation in HUVEC cells. The format is cell-based. As to conditions: overnight; 0.01-5.0 μM tested. The method, then: Inhibition of tube formation in HUVEC cells. […] Briefly, 1×10^4 HUV endothelial cells were seeded on the surface of the polymerized EC matrix gel per well, treated with either DMSO or 0.01 μM, 0.1 μM, 0.2 μM, 0.5 μM, 1.0 μM, 2.0 μM, and 5.0 μM of the compound from Example 1 and the compound from Example 16. The cells were incubated overnight at 37° C. The next day the tubes were observed and the images were captured using a Nikon phase contrast inverted microscope.

“Also recorded” adds a separate entry of the source.

In the case of `C/C(=C\C(=O)N[C@H]1CCc2cccc3c2N(C1=O)[C@H](C(=O)N[C@H](C)CCC(N)=O)C3)c1ccc(C(F)(F)P(=O)(OCOC(=O)C(C)(C)C)OCOC(=O)C(C)(C)C)cc1` [Example 1, (2E)-3-[4-[[bis[(2,2-dimethyl-1-oxopropoxy)methoxy]phosphinyl]difluoromethyl]phenyl]-but-2-enoyl-Haic-(R)-4-aminopentamide], in data set [1] (10 mM in 20% Trappsol/PBS, 50 μL intratumoral), the “growth of breast tumor xenograft” value is given as “inhibited; also recorded: inhibits the growth”. For the same compound, the “increase in average tumor volume” value in data set [1] (10 mM in 20% Trappsol/PBS, 50 μL intratumoral, vehicles 2.3 and 2.5-fold) turned out to be 1.6 fold. Besides, in data set [1] (centers / interior of tumors), the “tumor center histology (cellularity, necrosis)” value was “necrosis; also recorded: notably acellular” and the “tumor vascularity (CD31 staining, microvessels)” value is reported as “avascular”. Besides, the “Ki-67 staining of proliferating cells” value in data set [1] (treated tumors) is “decrease in Ki-67 staining”. Further, the “phosphorylation of STAT3 in treated tumors vs vehicle controls” value in data set [1] (tumors harvested 2 h after last treatment) is recorded as “reduced; also recorded: strongly inhibited”. Besides, the “time for which IL-6 expression is inhibited” value with IL-6 is listed as 48 h. The “colony formation in soft agar” value in data set [2] was “inhibition of colony formation”.
Take `CCCC[C@H](NC(=O)/C=C(\C)c1ccc(C(F)(F)P(=O)(OCOC(=O)C(C)(C)C)OCOC(=O)C(C)(C)C)cc1)C(=O)N1C[C@H]2CC2[C@H]1C(=O)N[C@@H](CCC(N)=O)[C@@H](C)OCc1ccccc1` (stereo partly drawn) [Example 16, (2E)-3-[4-[[bis[(2,2-dimethyl-1-oxopropoxy)methoxy]phosphinyl]difluoromethyl]phenyl]-but-2-enoyl-norleucinyl-(2S,3R,4S)-methanoprolinyl-(4S,5R)-4-amino-5-benzyloxyhexamide]: the “potency in MTT viability assay relative to Example 1” value in data set [3] is on record as “somewhat more potent”. The “effect on normal cells compared to vehicle DMSO” value in the data set on normal cells was “negligible effects”. The “concentration at which significant reduction in tube formation was observed” value in the data set with HUVEC cells amounted to 2 µM.

Source of the values: patent US8841257B2, “Inhibitors of STAT3 and uses thereof” (Board of Regents, The University of Texas System, priority 2009, dated 2014).
